# Measurements from US20260191815A1, “THIOACRYLAMIDE DERIVATIVES FOR USE IN THE PREVENTION OR TREATMENT OF LIVER FIBROSIS” (CMR CUREDIAB METABOLIC RESEARCH GMBH, priority 2022, published 2026).
# Assays:
# [1] = tested on: caspase 3/7 activity in primary human hepatocytes; assay: Caspase 3/7 activity provoked by palmitate in primary human hepatocytes; assay type: cell-based
# Procedure: (§1) The potential protective effect of HK1 and HK3 on caspase 3/7 activity in HepG2 cells and primary human hepatocytes was analysed.
# (§2) HepG2 cells were obtained from Merck (Darmstadt, Germany) (ECACC-certified), while primary human hepatocytes were obtained from Thermo Fisher Scientific (Waltham, MA, USA), and all were cultured according to the instructions of the respective manufacturers. During experiments, cells were cultured in serum-free medium. Unless otherwise stated, cells were treated with 200 μM bovine serum albumin (BSA)-conjugated palmitate (Cayman Chemicals, Ann Arbor, MI) alone or in combination with 10 μM HK1 (Taros Chemicals GmbH & Co. KG, Dortmund, Germany) and HK3 (Taros Chemicals GmbH & Co. KG, Dortmund, Germany) 30 min prior to palmitate exposure for 24 hours. The vehicle BSA was used according to the palmitate concentration and DMSO according to HK1 and HK3 concentration. 2 μM Staurosporine (Abcam, Cambridge, GB) was used as a positive and 100 μM Caspase 3/7 inhibitor (CI) (Cayman Chemicals) as a negative control.
# (§3) Differences were analysed by one-way ANOVA.
# [2] = tested on: caspase 3/7 activity in HepG2 cells; assay: Caspase 3/7 activity provoked by palmitate in HepG2 cells; assay type: cell-based
# Procedure: as §1, §2, §3
# A hepatoprotective effect was determined as described in Example 4. A treatment was performed with HK1, HK2, HK3, HK4 or HK5 (100 nM) either alone or in combination with palmitate (200 μM).
# Differences were analysed by one-way ANOVA, n=4.
# [3] = tested on: alpha-1 type 1 collagen (COL1A1) protein in LX2 cells; assay: Simple Western of COL1A1 protein in TGF-β1-stimulated LX2 hepatic stellate cells; assay type: cell-based, human; settings: 5 ng/ml TGF-β1, 24 h, LX2 cells
# Procedure: (§4) The human hepatic stellate cell line LX2 was purchased from Merck. The cells were used up to passage ten and incubated under sterile conditions at 37° C. and 5% CO2. The cells were cultivated in medium containing Dulbecco's Modified Eagle's Medium with 4.5 g/l glucose (ThermoFisher), 4 mmol/l glutamine (ThermoFisher), 2% fetal bovine serum (FBS) (Merck), 100 U/ml penicillin and 100 μg/ml streptomycin (Merck). After 2 days, LX2 cells were starved for FBS for 24 h and then pretreated with 10 μM HK1 (Taros Chemicals GmbH & Co. KG) or 10 μM HK3 (Taros Chemicals GmbH & Co. KG) for 30 min. Subsequently, 5 ng/ml recombinant TGF-β1 (R&D Systems, Minneapolis, MN, USA) was added to the hepatic stellate cell cultures for 24 h. LX2 cells were also incubated with 5 ng/ml TGF-β1 alone as positive control for the hepatic stellate cell activation. Recombinant TGF-β1 was dissolved in sterile 4 mmol/l HCl (Merck) containing 0.1% bovine serum albumin (Roth Karlsruhe, Germany) as carrier protein. HK1 and HK3 were dissolved in sterile dimethyl sulfoxide (DMSO) (Sigma-Aldrich, Munich, Germany). Stimulations with 10 μM HK1, 10 μM HK3 and the corresponding vehicles (HCl and DMSO with or without HCl) alone for 24 h were also included as treatments.
# (§5) For the measurement of the pro-fibrotic proteins, Western Blotting was performed. Proteins were extracted from whole cell lysate of LX2 cells using RIPA lysis buffer containing 50 mmol/l Tris-HCl (pH 8.0), 150 mmol/l NaCl, 1% IGEPAL® CA-630, 0.5% sodium deoxycholate, 0.1% sodium dodecyl sulfate, 10% PhosSTOP Phosphatase Inhibitor Cocktail (Roche, Basel, Switzerland) and 10% cOmplete Mini Protease Inhibitor Cocktail (Roche). Lysates were centrifuged at 14850×g for 15 min at 4° C. Then, the total protein content of the lysates was determined using a bicinchoninic acid protein assay (ThermoFisher Scientific) in accordance with the manufacturer's instructions. The quantification of protein abundance was performed by Simple Western size-based assays using a 12-230 kDa and 66-440 kDa Separation Module (ProteinSimple, San Jose, CA, USA) according to the manufacturer's instructions. This fully automated Western blotting system is based on a capillary electrophoresis technology. The separation, immobilization to the capillary wall via a proprietary, photoactivated capture chemistry and immunodetection of the proteins using a horseradish peroxidase (HRP)-conjugated secondary antibody and chemiluminescent substrate take place directly in the capillary without gel separation and transfer steps to blotting paper. The chemiluminescence is measured at multiple exposure times and automatically quantified by the Compass for Simple Western software (version 4.1.0) (ProteinSimple). The chemiluminescent signal for immunodetected proteins, which can be represented as an electropherogram or virtual blot-like image, is automatically quantified by calculation of the area under the curve of the peak.
# (§6) The software reports the molecular weight, the area (in an arbitrary unit and in percent) and signal to noise ratio for each protein detected. The primary antibodies for the recognition of endogenous levels of total alpha-1 type 1 collagen (COL1A1) protein (#72026) and total fibronectin 1 (FN1) protein (#26836) were purchased from Cell Signaling Technology (Danvers, MA, USA). The anti-rabbit HRP-linked secondary antibody was from ProteinSimple. […]
# (§7) Differences were analysed by one-way ANOVA followed by the Tukey method as correction for multiple testing.
# [4] = tested on: interleukin-6 (IL-6) secretion by LX2 cells; assay: Olink Inflammation immunoassay of LX2 supernatants: IL-6; assay type: cell-based, human; settings: 5 ng/ml TGF-β1
# Procedure: as §4
# LX2 cells were cultured and treated as described in Example 1. After the incubation time, the supernatants of LX2 cells were collected, centrifuged for 10 min at 2000×g at 4° C. and transferred to new tubes to measure 92 proteins in the cell culture supernatants simultaneously using the Olink Inflammation multiplex immunoassay (Olink proteomics, Uppsala, Sweden). This panel covers 92 proteins, including pro- and anti-inflammatory cytokines, growth factors, chemokines and factors involved in biological processes such as apoptosis, inflammatory and immune response, cell adhesion, chemotaxis, or fibrosis. This protein quantification method is based on a proximity extension assay technology, which combines a dual-recognition immunoassay using two matched antibodies labelled with DNA oligonucleotides, with a polymerase chain reaction (PCR) amplification and a microfluidic quantitative real-time PCR as readout. The biomarker concentrations are given as normalized protein expression (NPX) values, which were generated from the threshold cycle values from the qPCR, and represent an arbitrary unit on a log 2 scale.
# as §7
# [5] = tested on: vascular endothelial growth factor A (VEGFA) secretion by LX2 cells; assay: Olink Inflammation immunoassay of LX2 supernatants: VEGFA; assay type: cell-based, human; settings: 5 ng/ml TGF-β1
# Procedure: as §4, with “Recombinant TGF-β1 was dissolved in sterile 4 mmol/l HCl (Merck) containing 0.1% bovine serum albumin (Roth Karlsruhe, Germany) as carrier protein. HK1 and HK3 were dissolved in sterile dimethyl sulfoxide (DMSO) (Sigma-Aldrich, Munich, Germany). Stimulations with 10 μM HK1, 10 μM HK3 and the corresponding vehicles (HCl and DMSO with or without HCl) alone for 24 h were also included as treatments.” left out
# (§8) LX2 cells were cultured and treated as described in Example 1. […] This protein quantification method is based on a proximity extension assay technology, which combines a dual-recognition immunoassay using two matched antibodies labelled with DNA oligonucleotides, with a polymerase chain reaction (PCR) amplification and a microfluidic quantitative real-time PCR as readout. […]
# as §7
# [6] = tested on: leukaemia inhibitory factor (LIF) secretion by LX2 cells; assay: Olink Inflammation immunoassay of LX2 supernatants: LIF; assay type: cell-based, human; settings: 5 ng/ml TGF-β1
# Procedure: as §4, with “Recombinant TGF-β1 was dissolved in sterile 4 mmol/l HCl (Merck) containing 0.1% bovine serum albumin (Roth Karlsruhe, Germany) as carrier protein. HK1 and HK3 were dissolved in sterile dimethyl sulfoxide (DMSO) (Sigma-Aldrich, Munich, Germany). Stimulations with 10 μM HK1, 10 μM HK3 and the corresponding vehicles (HCl and DMSO with or without HCl) alone for 24 h were also included as treatments.” left out
# as §8, §7
# [7] = tested on: fibronectin 1 (FN1) protein in LX2 cells; assay: Simple Western of FN1 protein in TGF-β1-stimulated LX2 hepatic stellate cells; assay type: cell-based, human; settings: 5 ng/ml TGF-β1, 24 h, LX2 cells
# Procedure: as §4, §5, §6, §7
molecule,measurement,setting,value
"COC[C@@H]1CCCN1S(=O)(=O)c1ccc2c(c1)C(=O)C(=O)N2 [Caspase 3/7 inhibitor, reference compound]","caspase 3/7 activity, % of control",[1]; 100 μM inhibitor + palmitate 200 μM,21.23%±4.33%
same,"caspase 3/7 activity, % of control",[2]; 100 μM caspase 3/7 inhibitor + palmitate 200 μM,29.65%±24.56%
"CCCCCCCCCCCCCCCC(=O)O [palmitate, reference compound]",activity at 200 µM,"[1]; Hepatocyte, palmitate 200 μM alone, read-out: caspase 3/7 activity, % of control",129%
same,activity at 200 µM,"[2]; Homo sapiens, palmitate 200 μM alone, 24 h, read-out: caspase 3/7 activity, % of control",429%
"CN[C@@H]1C[C@H]2O[C@@](C)([C@@H]1OC)n1c3ccccc3c3c4c(c5c6ccccc6n2c5c31)C(=O)NC4 [Staurosporine, reference compound]",activity at 2 µM,"[2]; Homo sapiens, 2 μM, positive control",687%
"TGF-β1: recombinant TGF-β1 (R&D Systems), positive control for the hepatic stellate cell activation",increase of protein levels of COL1A1 compared to untreated cells,[3],2.6±0.2 fold
same,increased secretion of IL-6 compared to untreated LX2 cells,[4],4.99±2.01 fold
same,increased secretion of VEGFA compared to untreated LX2 cells,[5],13.89±2.40 fold
same,increased secretion of LIF compared to untreated LX2 cells,[6],35.40±9.76 fold
same,increase of protein levels of FN1 compared to untreated cells,[7],3.0±0.2 fold
